In the assay the target is recombinant human CETP protein (Homo sapiens (Human), UniProt P11597). Description: Test of CETP inhibition activity (in vitro, buffer-based). The assay is classed as biochemical. As to conditions: reconstituted HDL with [14C]-labeled cholesteryl ester, acceptor lipoprotein, 37° C. On the procedure:
Test of CETP Inhibition Activity (In Vitro, Buffer-Based)
(1) Preparation of Reconstituted HDL
Cholesterol (1.125 μmol), phosphatidyl choline (4.5 μmol) and [^14C]-labeled cholesteryl ester (2.0 μCi; 40 μl) were taken in a glass test tube and well mixed with a vortex, and dried under a nitrogen gas current so that it formed a thin film. The obtained mixture was dissolved in ethanol (200 μl), which was designated as Solution A. A PBS solution [a mixed solution of Na2HPO4 (30 mM), KH2PO4 (8.8 mM), NaCl (60 mM) and EDTA (pH 7.4; 0.67 mM); 4 ml] was taken in a tube and the reaction solution was vigorously stirred with a vortex under a nitrogen current. The above-described Solution A was gently injected into this mixture with a syringe and the reaction solution was vigorously stirred with a vortex for 5 minutes under a nitrogen current. Sodium cholate ([…]; 0.38 ml) was added to the obtained mixture and the reaction solution was stirred for 2 minutes. ApoA-I protein (3 mg) was added to the obtained mixture and the reaction solution was stirred for 2 minutes. The obtained mixture was adjusted to 5 ml with the PBS solution and then dialyzed with the PBS solution. The obtained mixture was designated as the reconstituted HDL.
(2) Preparation of Acceptor Lipoprotein
NaBr was added to the plasma of a healthy person and the density of the mixture was adjusted to 1.019, and the mixture was subjected to density gradient centrifugation (40000 rpm, for 16 hours) to remove the fraction having a density of less than 1.019. NaBr was added to the obtained mixture and the density of the solution was adjusted to 1.063, and the solution was subjected to density gradient centrifugation (40000 rpm, 18 hours) to provide the fraction consisting of IDL (intermediate density lipoprotein) and LDL (1.019<density<1.063). The obtained fraction was dialyzed with the PBS solution. The obtained mixture was designated as the acceptor lipoprotein.
(3) Measurement of CETP Inhibition Activity
A recombinant human CETP protein (manufactured by Roar Biomedical Inc.; 4.5 ng), the acceptor lipoprotein described in (2) above (32.5 μg) and 5,5′-dithio-bis-(2-nitrobenzoic acid) (7 mM, 15 μl) were taken in a 96 well plate and the total amount of the mixture was adjusted to 48.5 μl with the PBS solution. The test compound [DMSO solution (concentration: 0.15, 0.5, 1.5, 5, 15, 50, 150 and 500 μM; 1.5 μl] was added to each well and the mixture was incubated in a thermostatic bath at 37° C. for 60 minutes. The reconstituted HDL (50 μl) described in (1) above was added to each well and the mixture was reacted in a thermostatic bath at 37° C. for 60 minutes. The 96 well plate was moved onto ice and a precipitation reagent [a mixed solution of magnesium chloride (60 mM) and 0.1% dextran sulfate [1/1 (v/v)]; 15 μl] was added to each well, and then the mixture was allowed to stand on ice for 15 minutes. The reaction solution (80 μl) in each well was moved to a filter plate and centrifuged at 1500 rpm for 1 minute, and the filtrate which passed through the filter was designated as the HDL fraction and the radioactivity thereof was measured with a scintillation counter. The percentage decrease in radioactivity in the case where the test compound was added in comparison with that in case where the test compound was not added was designated as the percentage CETP inhibition. The IC50 value was calculated from the percentage CETP inhibition.

Data on 16 molecules can be found in patent US9187450B2, “Substituted pyridine compound” (Daiichi Sankyo Company, Limited, priority 2010, dated 2015).

Chain of recombinant human CETP protein (P11597 18-493): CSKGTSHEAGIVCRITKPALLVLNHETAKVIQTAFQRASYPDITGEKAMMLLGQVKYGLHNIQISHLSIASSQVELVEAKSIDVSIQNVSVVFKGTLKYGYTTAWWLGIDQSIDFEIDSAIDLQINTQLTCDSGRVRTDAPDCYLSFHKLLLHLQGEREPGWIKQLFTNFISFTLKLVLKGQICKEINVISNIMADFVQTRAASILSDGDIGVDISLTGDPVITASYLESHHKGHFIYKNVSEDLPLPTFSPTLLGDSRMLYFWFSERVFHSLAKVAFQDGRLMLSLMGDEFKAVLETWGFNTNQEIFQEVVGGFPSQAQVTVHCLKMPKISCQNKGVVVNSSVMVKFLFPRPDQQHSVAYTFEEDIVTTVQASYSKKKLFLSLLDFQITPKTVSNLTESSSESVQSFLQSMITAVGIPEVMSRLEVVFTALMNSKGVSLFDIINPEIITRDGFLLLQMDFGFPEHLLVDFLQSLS

As for `CN(C)C(=O)c1cnc(N2CCC(c3nc4c(c(C5CCC(F)(F)CC5)c3[C@@H](F)c3ccc(C(F)(F)F)cc3)[C@@H](O)CC(C)(C)C4)CC2)nc1` (single isomer, unassigned) [Example 31, (−)-4-(4,4-Difluorocyclohexyl)-2-{1-[5-(dimethylcarbamoyl)pyrimidin-2-yl]piperidin-4-yl}-3-{fluoro[4-(trifluoromethyl)phenyl]methyl}-7,7-dimethyl-5,6,7,8-tetrahydroquinolin-5-ol], the IC50 was 29 nM.
In the case of `CC1(C)Cc2nc(C3CCN(c4ncc(OCC(CO)CO)cn4)CC3)c([C@@H](F)c3ccc(C(F)(F)F)cc3)c(C3CCC(F)(F)CC3)c2[C@@H](O)C1` (single isomer, unassigned) [Example 49, (−)-4-(4,4-Difluorocyclohexyl)-3-{fluoro[4-(trifluoromethyl)phenyl]methyl}-2-(1-{5-[3-hydroxy-2-(hydroxymethyl)propoxy]pyrimidin-2-yl}piperidin-4-yl)-7,7-dimethyl-5,6,7,8-tetrahydroquinolin-5-ol], the IC50 came to 8 nM.
Under `CNC(=O)c1cnc(N2CCC(c3nc4c(c(C5CCC(F)(F)CC5)c3[C@@H](F)c3ccc(C(F)(F)F)cc3)[C@@H](O)CC(C)(C)C4)CC2)nc1` (single isomer, unassigned) [Example 30, 4-(4,4-Difluorocyclohexyl)-3-{fluoro[4-(trifluoromethyl)phenyl]methyl}-7,7-dimethyl-2-{1-[5-(methylcarbamoyl)pyrimidin-2-yl]piperidin-4-yl}-5,6,7,8-tetrahydroquinolin-5-ol] stands 32 nM; under `CC(C)Cc1cnc(N2CCC(c3nc4c(c(C5CCC(F)(F)CC5)c3[C@@H](F)c3ccc(C(F)(F)F)cc3)[C@@H](O)CC(C)(C)C4)CC2)nc1` (single isomer, unassigned) [Example 24, (−)-4-(4,4-Difluorocyclohexyl)-3-{fluoro[4-(trifluoromethyl)phenyl]methyl}-7,7-dimethyl-2-{1-[5-(2-methylpropyl)pyrimidin-2-yl]piperidin-4-yl}-5,6,7,8-tetrahydroquinolin-5-ol], 54 nM.
Turning to `CC(C)c1cnc(N2CCC(c3nc4c(c(C5CCC(F)(F)CC5)c3[C@@H](F)c3ccc(C(F)(F)F)cc3)[C@@H](O)CC(C)(C)C4)CC2)nc1` (single isomer, unassigned) [Example 12, 4-(4,4-Difluorocyclohexyl)-3-{fluoro[4-(trifluoromethyl)phenyl]methyl}-7,7-dimethyl-2-{1-[5-(propan-2-yl)pyrimidin-2-yl]piperidin-4-yl}-5,6,7,8-tetrahydroquinolin-5-ol], the IC50 was found to be 103 nM.
For `CC1(C)Cc2nc(C3CCN(c4ncc(N5CCCCC5)cn4)CC3)c([C@@H](F)c3ccc(C(F)(F)F)cc3)c(C3CCC(F)(F)CC3)c2[C@@H](O)C1` (single isomer, unassigned) [Example 6, (−)-4-(4,4-Difluorocyclohexyl)-3-{fluoro[4-(trifluoromethyl)phenyl]methyl}-7,7-dimethyl-2-{1-[5-(piperidin-1-yl)pyrimidin-2-yl]piperidin-4-yl}-5,6,7,8-tetrahydroquinolin-5-ol] the value was 66 nM; for `CC(C)(O)CCOc1cnc(N2CCC(c3nc4c(c(C5CCC(F)(F)CC5)c3[C@@H](F)c3ccc(C(F)(F)F)cc3)[C@@H](O)CC(C)(C)C4)CC2)nc1` (single isomer, unassigned) [Example 43, (−)-4-(4,4-Difluorocyclohexyl)-3-{fluoro[4-(trifluoromethyl)phenyl]methyl}-2-{1-[5-(3-hydroxy-3-methylbutoxy)pyrimidin-2-yl]piperidin-4-yl}-7,7-dimethyl-5,6,7,8-tetrahydroquinolin-5-ol], 9 nM.
For `CC1(C)Cc2nc(C3CCN(c4ncccn4)CC3)c([C@@H](F)c3ccc(C(F)(F)F)cc3)c(C3CCC(F)(F)CC3)c2[C@@H](O)C1` (single isomer, unassigned) [Example 1, (−)-4-(4,4-Difluorocyclohexyl)-3-{fluoro[4-(trifluoromethyl)phenyl]methyl}-7,7-dimethyl-2-[1-(pyrimidin-2-yl)-piperidin-4-yl]-5,6,7,8-tetrahydroquinolin-5-ol] the value was 83 nM; for `COCc1cnc(N2CCC(c3nc4c(c(C5CCC(F)(F)CC5)c3[C@@H](F)c3ccc(C(F)(F)F)cc3)[C@@H](O)CC(C)(C)C4)CC2)nc1` (single isomer, unassigned) [Example 27, (−)-4-(4,4-Difluorocyclohexyl)-3-{fluoro[4-(trifluoromethyl)phenyl]methyl}-2-{1-[5-(methoxymethyl)pyrimidin-2-yl]piperidin-4-yl}-7,7-dimethyl-5,6,7,8-tetrahydroquinolin-5-ol], 40 nM; for `CCCCCc1cnc(N2CCC(c3nc4c(c(C5CCC(F)(F)CC5)c3[C@@H](F)c3ccc(C(F)(F)F)cc3)[C@@H](O)CC(C)(C)C4)CC2)nc1` (single isomer, unassigned) [Example 16, (−)-4-(4,4-Difluorocyclohexyl)-3-{fluoro[4-(trifluoromethyl)phenyl]methyl}-7,7-dimethyl-2-[1-(5-pentylpyrimidin-2-yl)piperidin-4-yl]-5,6,7,8-tetrahydroquinolin-5-ol], 243 nM.
For `CC1(C)Cc2nc(C3CCN(c4ncc(C#N)cn4)CC3)c([C@@H](F)c3ccc(C(F)(F)F)cc3)c(C3CCC(F)(F)CC3)c2[C@@H](O)C1` (single isomer, unassigned) [Example 17, (−)-2-[1-(5-cyanopyrimidine-2-yl)piperidin-4-yl]-4-(4,4-difluorocyclohexyl)-3-{fluoro[4-(trifluoromethyl)phenyl]methyl}-7,7-dimethyl-5,6,7,8-tetrahydroquinoline-5-ol] the value was 217 nM; for `CC1(C)Cc2nc(C3CCN(c4ncc(N5CCSCC5)cn4)CC3)c([C@@H](F)c3ccc(C(F)(F)F)cc3)c(C3CCC(F)(F)CC3)c2[C@@H](O)C1` (single isomer, unassigned) [Example 9, (−)-4-(4,4-Difluorocyclohexyl)-3-{fluoro[4-(trifluoromethyl)phenyl]methyl}-7,7-dimethyl-2-{1-[5-(thiomorpholin-4-yl)pyrimidin-2-yl]piperidin-4-yl}-5,6,7,8-tetrahydroquinolin-5-ol], 122 nM; for `CC1(C)Cc2nc(C3CCN(c4ncc(O)cn4)CC3)c([C@@H](F)c3ccc(C(F)(F)F)cc3)c(C3CCC(F)(F)CC3)c2[C@@H](O)C1` (single isomer, unassigned) [Example 4, (−)-4-(4,4-Difluorocyclohexyl)-3-{fluoro[4-(trifluoromethyl)phenyl]methyl}-2-[1-(5-hydroxypyrimidin-2-yl)piperidin-4-yl]-7,7-dimethyl-5,6,7,8-tetrahydroquinolin-5-ol], 73 nM.
For the molecule `CN(Cc1cnc(N2CCC(c3nc4c(c(C5CCC(F)(F)CC5)c3[C@@H](F)c3ccc(C(F)(F)F)cc3)[C@@H](O)CC(C)(C)C4)CC2)nc1)S(C)(=O)=O` (single isomer, unassigned) [Example 51, (−)-4-(4,4-Difluorocyclohexyl)-3-{fluoro[4-(trifluoromethyl)phenyl]methyl}-7,7-dimethyl-2-[1-(5-{[methyl(methylsulphonyl)amino]methyl}pyrimidin-2-yl)piperidin-4-yl]-5,6,7,8-tetrahydroquinolin-5-ol], the IC50 came to 6 nM.
Consider `CC(C)COCc1cnc(N2CCC(c3nc4c(c(C5CCC(F)(F)CC5)c3[C@@H](F)c3ccc(C(F)(F)F)cc3)[C@@H](O)CC(C)(C)C4)CC2)nc1` (single isomer, unassigned) [Example 29, (−)-4-(4,4-Difluorocyclohexyl)-3-{fluoro[4-(trifluoromethyl)phenyl]methyl}-7,7-dimethyl-2-(1-{5-[(2-methylpropoxy)methyl]pyrimidin-2-yl}piperidin-4-yl)-5,6,7,8-tetrahydroquinolin-5-ol], for which the half-inhibitory concentration (IC50) was found to be 62 nM.
For `CC1(C)Cc2nc(C3CCN(c4ncc(OC[C@H](O)CO)cn4)CC3)c([C@@H](F)c3ccc(C(F)(F)F)cc3)c(C3CCC(F)(F)CC3)c2[C@@H](O)C1` (single isomer, unassigned) [Example 40] the value was 11 nM.
